Assays:
NCI-H226 = test: NCI cytotoxicity screen; format: cell-based, human; details: 10.0 μM one dose
HCT-15 = test: NCI cytotoxicity screen; format: cell-based, human; details: 10.0 μM one dose
MOLT-4 = test: NCI cytotoxicity screen; format: cell-based, human; details: 10.0 μM one dose
SF-268 = test: NCI cytotoxicity screen; format: cell-based, human; details: 10.0 μM one dose
59 cancer cell lines = test: NCI cytotoxicity screen, full panel; format: cell-based, human; details: 10.0 μM one dose, 59 cell lines
KM12 = test: NCI cytotoxicity screen; format: cell-based, human; details: 10.0 μM one dose; KM-12
HT29 = test: NCI cytotoxicity screen; format: cell-based, human; details: 10.0 μM one dose; HT-29
SNB-19 = test: NCI cytotoxicity screen; format: cell-based, human; details: 10.0 μM one dose
LOX IMVI = test: NCI cytotoxicity screen; format: cell-based, human; details: 10.0 μM one dose
CCRF-CEM = test: NCI cytotoxicity screen; format: cell-based, human; details: 10.0 μM one dose
T-47D = test: NCI cytotoxicity screen; format: cell-based, human; details: 10.0 μM one dose; T-47D
HS 578T = test: NCI cytotoxicity screen; format: cell-based, human; details: 10.0 μM one dose; HS-578T
OVCAR-3 = test: NCI cytotoxicity screen; format: cell-based, human; details: 10.0 μM one dose; OVCAR-3
K-562 = details: 10.0 μM one dose
SR = test: NCI cytotoxicity screen; format: cell-based, human; details: 10.0 μM one dose
EGFR = EGFR (Homo sapiens, UniProt P00533); test: biochemical; details: IC50 EGFR inhibition
CDK9 = CDK9 (Homo sapiens, UniProt P50750); test: biochemical; details: IC50 CDK9 inhibition
SNB-75 = test: NCI cytotoxicity screen; format: cell-based, human; details: 10.0 μM one dose
SK-MEL-5 = test: NCI cytotoxicity screen; format: cell-based, human; details: 10.0 μM one dose
MDA-MB-231/ATCC = test: NCI cytotoxicity screen; format: cell-based, human; details: 10.0 μM one dose; MDA-MB-231/ATCC
EKVX = test: NCI cytotoxicity screen; format: cell-based, human; details: 10.0 μM one dose
CAKI-1 = test: NCI cytotoxicity screen; format: cell-based, human; details: 10.0 μM one dose
MDA-MB-468 = test: NCI cytotoxicity screen; format: cell-based, human; details: 10.0 μM one dose
UO-31 = test: NCI cytotoxicity screen; format: cell-based, human; details: 10.0 μM one dose
NCI-H522 = test: NCI cytotoxicity screen; format: cell-based, human; details: 10.0 μM one dose
MDA-MB-435 = test: NCI cytotoxicity screen; format: cell-based, human; details: 10.0 μM one dose
A549/ATCC = test: NCI cytotoxicity screen; format: cell-based, human; details: 10.0 μM one dose; A549/ATCC
MCF7 = test: NCI cytotoxicity screen; format: cell-based, human; details: 10.0 μM one dose; MCF-7
PC-3 = test: NCI cytotoxicity screen; format: cell-based, human; details: 10.0 μM one dose
UACC-62 = test: NCI cytotoxicity screen; format: cell-based, human; details: 10.0 μM one dose
RXF 393 = test: NCI cytotoxicity screen; format: cell-based, human; details: 10.0 μM one dose
COX-2 = target: T1, COX-2 (Ovis aries, UniProt P79208); test: Colorimetric COX; format: biochemical, ovine
T1 sequence (P79208 17-603): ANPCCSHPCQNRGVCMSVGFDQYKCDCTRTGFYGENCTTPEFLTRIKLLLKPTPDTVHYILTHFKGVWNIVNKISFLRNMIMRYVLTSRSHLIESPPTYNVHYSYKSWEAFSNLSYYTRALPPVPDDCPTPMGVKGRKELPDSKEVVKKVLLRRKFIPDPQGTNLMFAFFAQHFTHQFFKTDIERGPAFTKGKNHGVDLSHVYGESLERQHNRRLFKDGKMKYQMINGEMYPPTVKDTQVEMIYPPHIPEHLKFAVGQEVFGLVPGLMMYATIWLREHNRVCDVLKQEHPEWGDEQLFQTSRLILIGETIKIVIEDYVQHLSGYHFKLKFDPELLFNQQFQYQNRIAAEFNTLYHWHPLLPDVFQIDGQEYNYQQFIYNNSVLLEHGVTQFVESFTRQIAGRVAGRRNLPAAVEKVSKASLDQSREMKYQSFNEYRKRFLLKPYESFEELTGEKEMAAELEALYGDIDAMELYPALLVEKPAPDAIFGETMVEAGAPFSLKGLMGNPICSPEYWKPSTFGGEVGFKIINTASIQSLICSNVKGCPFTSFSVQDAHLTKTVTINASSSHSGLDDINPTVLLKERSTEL

HER2 = HER2 (Homo sapiens, UniProt P04626); test: HER2 tyrosine kinase assay; format: biochemical; details: IC50 HER2 inhibition
HCT-116 = test: NCI cytotoxicity screen; format: cell-based, human; details: 10.0 μM one dose
NCI-H23 = test: NCI cytotoxicity screen; format: cell-based, human; details: 10.0 μM one dose
[1] = test system: Ovarian cancer subpanel tumor cell lines; test: NCI cytotoxicity screen, subpanel; format: cell-based, human; details: 10 μM; range over ovarian cancer cell lines
SF-295 = test: NCI cytotoxicity screen; format: cell-based, human; details: 10.0 μM one dose
RPMI-8226 = test: NCI cytotoxicity screen; format: cell-based, human; details: 10.0 μM one dose
U251 = test: NCI cytotoxicity screen; format: cell-based, human; details: 10.0 μM one dose; U-251
A498 = test: NCI cytotoxicity screen; format: cell-based, human; details: 10.0 μM one dose; A-498
SF-539 = test: NCI cytotoxicity screen; format: cell-based, human; details: 10.0 μM one dose
DU-145 = test: NCI cytotoxicity screen; format: cell-based, human; details: 10.0 μM one dose

HER2, sequence (P04626 23-1255): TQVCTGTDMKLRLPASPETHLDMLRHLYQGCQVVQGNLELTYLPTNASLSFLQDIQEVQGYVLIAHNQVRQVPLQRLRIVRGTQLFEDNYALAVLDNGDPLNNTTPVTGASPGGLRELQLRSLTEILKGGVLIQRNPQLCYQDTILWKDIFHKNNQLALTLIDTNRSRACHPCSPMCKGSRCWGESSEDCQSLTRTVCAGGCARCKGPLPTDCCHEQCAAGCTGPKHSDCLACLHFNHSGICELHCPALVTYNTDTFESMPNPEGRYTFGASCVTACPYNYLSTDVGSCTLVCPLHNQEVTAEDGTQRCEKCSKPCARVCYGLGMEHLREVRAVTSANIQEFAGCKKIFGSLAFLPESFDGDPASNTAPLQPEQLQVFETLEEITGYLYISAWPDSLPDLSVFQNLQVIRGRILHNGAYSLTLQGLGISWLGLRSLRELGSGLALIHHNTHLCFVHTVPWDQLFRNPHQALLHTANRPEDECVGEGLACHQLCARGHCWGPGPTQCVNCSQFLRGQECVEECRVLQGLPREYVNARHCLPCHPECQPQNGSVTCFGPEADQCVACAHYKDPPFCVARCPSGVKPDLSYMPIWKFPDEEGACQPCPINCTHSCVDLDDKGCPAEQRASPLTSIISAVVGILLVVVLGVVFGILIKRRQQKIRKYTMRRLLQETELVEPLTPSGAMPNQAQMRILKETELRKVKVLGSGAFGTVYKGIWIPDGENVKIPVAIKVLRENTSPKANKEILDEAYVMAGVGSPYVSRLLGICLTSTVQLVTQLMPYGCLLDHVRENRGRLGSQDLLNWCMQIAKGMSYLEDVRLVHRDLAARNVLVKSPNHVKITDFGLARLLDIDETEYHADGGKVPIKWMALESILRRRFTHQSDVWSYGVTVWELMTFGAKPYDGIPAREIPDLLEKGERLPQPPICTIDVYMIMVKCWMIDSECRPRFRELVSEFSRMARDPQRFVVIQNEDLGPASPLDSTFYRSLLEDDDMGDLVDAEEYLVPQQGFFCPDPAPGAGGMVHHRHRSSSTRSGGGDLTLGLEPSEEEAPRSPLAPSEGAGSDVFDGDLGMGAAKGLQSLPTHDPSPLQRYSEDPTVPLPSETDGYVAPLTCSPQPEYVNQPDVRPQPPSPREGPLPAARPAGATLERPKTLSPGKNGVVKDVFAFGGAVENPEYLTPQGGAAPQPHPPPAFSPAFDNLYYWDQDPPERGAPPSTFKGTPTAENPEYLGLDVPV
CDK9, sequence (P50750 whole entry): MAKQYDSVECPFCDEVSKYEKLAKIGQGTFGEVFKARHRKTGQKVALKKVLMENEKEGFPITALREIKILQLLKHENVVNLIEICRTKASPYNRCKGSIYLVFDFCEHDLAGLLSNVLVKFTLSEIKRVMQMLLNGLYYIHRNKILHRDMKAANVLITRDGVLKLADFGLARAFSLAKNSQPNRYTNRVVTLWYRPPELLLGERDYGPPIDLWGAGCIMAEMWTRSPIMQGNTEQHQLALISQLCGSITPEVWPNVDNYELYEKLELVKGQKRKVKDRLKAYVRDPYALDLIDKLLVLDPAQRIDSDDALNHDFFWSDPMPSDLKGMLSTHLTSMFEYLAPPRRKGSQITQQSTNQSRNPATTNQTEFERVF
CDK9, sequence (O60563 whole entry partner): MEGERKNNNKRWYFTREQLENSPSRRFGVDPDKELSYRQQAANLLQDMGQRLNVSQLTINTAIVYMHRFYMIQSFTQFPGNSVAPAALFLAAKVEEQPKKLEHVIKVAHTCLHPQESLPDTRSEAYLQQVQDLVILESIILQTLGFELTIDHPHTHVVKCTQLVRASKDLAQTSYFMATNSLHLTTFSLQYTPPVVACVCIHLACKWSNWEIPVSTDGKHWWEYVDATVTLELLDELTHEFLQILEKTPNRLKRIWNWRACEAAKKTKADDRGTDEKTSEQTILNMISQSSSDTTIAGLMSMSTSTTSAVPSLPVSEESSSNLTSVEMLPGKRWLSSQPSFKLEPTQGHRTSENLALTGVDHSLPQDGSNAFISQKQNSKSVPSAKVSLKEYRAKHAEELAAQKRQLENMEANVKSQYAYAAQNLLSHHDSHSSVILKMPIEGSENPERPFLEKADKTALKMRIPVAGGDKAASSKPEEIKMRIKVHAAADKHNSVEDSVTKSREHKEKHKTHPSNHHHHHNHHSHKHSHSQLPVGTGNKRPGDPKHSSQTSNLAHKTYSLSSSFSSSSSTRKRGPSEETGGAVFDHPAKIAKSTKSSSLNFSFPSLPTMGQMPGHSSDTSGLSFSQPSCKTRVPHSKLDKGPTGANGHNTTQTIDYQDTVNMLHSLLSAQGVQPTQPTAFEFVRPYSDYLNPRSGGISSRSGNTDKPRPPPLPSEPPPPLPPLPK
EGFR, sequence (P00533 25-1210): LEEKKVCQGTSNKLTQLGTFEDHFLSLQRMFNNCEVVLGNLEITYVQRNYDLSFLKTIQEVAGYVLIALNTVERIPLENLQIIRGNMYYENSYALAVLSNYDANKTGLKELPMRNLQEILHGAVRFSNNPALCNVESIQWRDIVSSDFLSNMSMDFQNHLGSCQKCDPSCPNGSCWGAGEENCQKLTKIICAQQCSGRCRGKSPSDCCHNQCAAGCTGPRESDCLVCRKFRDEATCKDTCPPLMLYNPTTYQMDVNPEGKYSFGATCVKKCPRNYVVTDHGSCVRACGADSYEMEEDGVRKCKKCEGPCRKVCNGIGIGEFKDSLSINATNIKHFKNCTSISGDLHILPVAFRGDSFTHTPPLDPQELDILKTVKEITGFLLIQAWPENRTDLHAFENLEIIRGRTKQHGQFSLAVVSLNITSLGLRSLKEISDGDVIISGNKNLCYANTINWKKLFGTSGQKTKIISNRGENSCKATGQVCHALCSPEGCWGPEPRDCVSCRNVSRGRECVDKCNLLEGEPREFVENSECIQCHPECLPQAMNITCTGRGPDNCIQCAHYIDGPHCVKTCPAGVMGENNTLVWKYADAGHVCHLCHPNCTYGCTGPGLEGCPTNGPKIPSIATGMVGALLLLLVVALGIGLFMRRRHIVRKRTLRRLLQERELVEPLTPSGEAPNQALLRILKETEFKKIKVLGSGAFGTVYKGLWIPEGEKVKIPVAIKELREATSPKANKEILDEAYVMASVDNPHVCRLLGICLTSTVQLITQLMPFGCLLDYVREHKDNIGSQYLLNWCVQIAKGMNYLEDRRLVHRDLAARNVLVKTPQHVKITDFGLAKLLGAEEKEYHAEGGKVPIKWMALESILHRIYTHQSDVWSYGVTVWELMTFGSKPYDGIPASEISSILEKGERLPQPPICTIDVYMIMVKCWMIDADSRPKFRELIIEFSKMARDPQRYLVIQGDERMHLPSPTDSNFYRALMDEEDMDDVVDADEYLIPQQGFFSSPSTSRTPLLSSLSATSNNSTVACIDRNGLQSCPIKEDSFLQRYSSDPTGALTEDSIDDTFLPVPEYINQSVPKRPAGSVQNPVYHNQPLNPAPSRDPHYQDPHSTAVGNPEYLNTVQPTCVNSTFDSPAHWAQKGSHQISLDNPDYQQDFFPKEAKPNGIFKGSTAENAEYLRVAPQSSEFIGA

Which results are given for `Cc1ccc(C=NNC(=O)CSc2nc3ccccc3c(=O)n2Cc2ccc(S(N)(=O)=O)cc2)cc1` [Compound 9, 4-((2-((2-(2-(4-Methylbenzylidene)hydrazineyl)-2-oxoethyl)thio)-4-oxoquinazolin-3(4H)-yl)methyl)benzenesulfonamide]?
GI % (NCI-H226): 16%; GI % (HCT-15): 11%; GI % (MOLT-4): 14%; GI % (SF-268): 22%; MG% (mean growth percent) (59 cancer cell lines): 88.5%; GI % (KM12): 14%; GI % (HT29): 14%; GI % (SNB-19): 11%; GI % (LOX IMVI): 18%; GI % (CCRF-CEM): 13%; GI % (T-47D): 19%; GI % (HS 578T): 12%; GI % (OVCAR-3): 21%; GI % (K-562): 37%; GI % (SR): 51%; IC50 (EGFR): 0.378 ± 0.00926 µM; IC50 (CDK9): 0.316 ± 0.00776 µM; GI % (SNB-75): 29%; GI % (SK-MEL-5): 26%; GI % (MDA-MB-231/ATCC): 11%; GI % (EKVX): 10%; GI % (CAKI-1): 36%; GI % (MDA-MB-468): 19%; GI % (UO-31): 20%; GI % (NCI-H522): 58%; GI % (MDA-MB-435): 54%; GI % (A549/ATCC): 15%; GI % (MCF7): 41%; GI % (PC-3): 11%; GI % (UACC-62): 22%; GI % (RXF 393): 14%; IC50 (COX-2): 15.4 ± 0.32 µM; IC50 (HER2): 0.229 µM

`Cc1ccc(NC(=O)c2ccc(CN3CCN(C)CC3)cc2)cc1Nc1nccc(-c2cccnc2)n1` [Imatinib, reference compound] was tested. Which GI % (NCI-H226) did it give?
The GI % was 10.6%.

What about the GI % (HCT-116) of the same compound?
Its GI % is 18.6%.

What about the GI % (HCT-15) of the same compound?
Its GI % is 11.5%.

And the GI % (MOLT-4)?
The GI % was 18%.

And the GI % (NCI-H23)?
The GI % was 17.1%.

And the “MG% (mean growth percent)” value (59 cancer cell lines)?
Its value is 92.62%.

What about the “MG% (mean growth percent)” value (59 cancer cell lines; listed as imatinib) of the same compound?
Its value is 92.6%.

What about the GI % (HT29) of the same compound?
The GI % was 47.1%.

What about the GI % (LOX IMVI) of the same compound?
The GI % was 11.6%.

And the GI % [1]?
Its GI % is less than 10%.

And the GI % (SF-295)?
The GI % was 15.1%.

And the GI % (T-47D)?
The GI % was 18.6%.

And the GI % (SR)?
The GI % was 14.6%.

What about the GI % (RPMI-8226) of the same compound?
Its GI % is 12.6%.

What about the GI % (MDA-MB-231/ATCC) of the same compound?
The GI % was 11.2%.

What about the GI % (EKVX) of the same compound?
Its GI % is 15.7%.

And the GI % (MDA-MB-468)?
Its GI % is 29.1%.

What about the GI % (U251) of the same compound?
The GI % was 10.6%.

What about the GI % (A498) of the same compound?
Its GI % is 13.7%.

What about the GI % (SF-539) of the same compound?
The GI % was 24.5%.

What about the GI % (PC-3) of the same compound?
The GI % was 10.6%.

And the GI % (DU-145)?
The GI % was 14.4%.

— paper PMC11702208 (RSC Advances, 2025)
